Experiments:
[1] = test system: human peripheral blood mononuclear cells (PBMCs); experiment: LPS induced TNF-α synthesis by human PBMCs (ELISA); format: cell-based; conditions: FIG. 3
Description: The next experiment done by the inventor relates to the question whether amino acids are able to enhance immune effects of free glycine. To investigate this, human peripheral blood mononuclear cells (PBMCs) were stimulated with lipopolysaccharide (LPS) in the presence of free glycine in combination with different levels of free glutamine In short: Human PBMCs were obtained from buffy coats supplied by the blood bank and prepared by Ficoll gradient centrifugation according to standard methods. The recovered PBMCs were washed with PBS and cultured in RPMI-1640 containing, penicillin, streptomycin and 5% Fetal call serum (FCS), 1.5E5 cells/well (96-wells culture plate). The cells were stimulated with LPS (E. coli, 055:B5, 10 ng/ml) for 20 hr after 1 hr pre-incubation with different levels of glycine in combination with different levels of glutamine. The tested levels of glycine and glutamine were also tested separately. TNF-α levels were detected in the supernatant of the cells using an ELISA kit.

RBL-2H3 cells = conditions: glycine concentration series from 500 μg/ml, 20 hours incubation, concentration dependent
Protocol: RBL-2H3 cells were sensitized by 100 ng/ml mouse IgE α-dinitrophenyl in culture medium (DMEM with 10% FBS and 1% penicillin/[…]) and plate out 100 μl/well in a 96-well flat bottom plate. After 18 hrs of culturing at 37° C. with 5% CO2, the cells were washed 4 times with 200 μl Tyrode's buffer (130 mM NaCl, […], 1.4 mM CaCl2, 1 mM MgCl2, 5.6 mM glucose, 10 mM HEPES, and 0.1% bovine serum albumin in distilled water, pH 7.4). 25 μl glycine in a concentration series starting form 500 μg/ml and diluted 1:1 in Tyrode's buffer (component), 25 μl Tyrode's buffer (controls) or 25 μl quercetin 100 μM (positive control) were added to the cells. 25 μl of DNP-BSA (100 ng/ml) and 50 μl Tyrode's buffer were added to each component well. After 20 hours incubation at 37° C. with 5% CO2 90 μl of the cells supernatant was collected and stored at −80° C. for cytokine analysis by multiplex bead immunoassay.

[2] = test system: Female C3H/HeOuJ mice sensitized against bovine whey protein; conditions: oral gavage 50 or 100 mg/mouse 24 and 4 hours before sensitization

| Compound | LPS induced TNF-α synthesis by PBMCs ([1]; LPS 10 ng/ml for 20 hr after 1 hr pre-incubation) | crosslinking induced TNFα production (RBL-2H3 cells; FIG. 1A) | crosslinking induced IL-4 production (RBL-2H3 cells; FIG. 1B) | crosslinking induced IL-13 production (RBL-2H3 cells; FIG. 1C) | allergic skin response (ear swelling) after intradermal whey injection ([2]; effect concentration dependent, FIG. 2A) | mMCP1 release (by intestinal mast cells) after an oral allergen challenge ([2]; serum one hour after 50 mg whey oral challenge, FIG. 2B) | production of whey-specific IgE ([2]; serum, ELISA, FIG. 2C) | effect of glutamine on glycine inhibition of LPS induced TNF-α synthesis ([1]; glutamine combined with glycine at specific ratios, LPS 10 ng/ml 20 hr) |
| --- | --- | --- | --- | --- | --- | --- | --- | --- |
| NCC(=O)O [Glycine, glycine] | inhibited | inhibits | inhibits | inhibits | inhibits the allergy development | inhibits allergy development | inhibits |  |
| NC(=O)CC[C@H](N)C(=O)O [glutamine] |  |  |  |  |  |  |  | enhanced this effect synergistically |
